Measured values taken from US11596639B2, “Substituted indole Mcl-1 inhibitors” (Vanderbilt University, priority 2016, dated 2023).
Where two headings read alike, the source gives them in different places.

Assays:
Mcl-1 = Mcl-1 (Homo sapiens (Human), UniProt Q07820); assay: Fluorescence polarization anisotropy (FPA) competition assay, FITC-Bak or FITC-Bim BH3 peptide; format: binding; conditions: read-out: Ki for Inhibition of Mcl-1 by FPA assay
[1] = tested on: H929 human cancer cell lines; assay: Cellular viability / proliferation (Cell TiterGlo, 72 h); format: cell-based
In short: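 1,000 cells/well, 10% FBS medium; compound added at 24 h, 2-fold dilutions from 50 μM top, DMSO <1% final. 72 h exposure, CellTiterGlo 30 min RT dark, luminescence read. IC50 by 4-parameter fit.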

[2] = Homo sapiens, NCI-H929, 72 h, read-out: GI50 on cellular proliferation of H929 human cancer cell lines, H929 cells, 72 h, Cell TiterGlo, 10% FBS

Mcl-1, sequence (Q07820 172-327): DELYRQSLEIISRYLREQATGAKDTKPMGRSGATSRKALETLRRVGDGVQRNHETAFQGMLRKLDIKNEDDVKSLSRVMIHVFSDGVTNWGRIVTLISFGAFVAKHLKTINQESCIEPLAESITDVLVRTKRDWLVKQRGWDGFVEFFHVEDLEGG

SMILES | Ki (Mcl-1) | GI50 [1, 2] | GI50 ([1]; H929 cells, 72 h, Cell TiterGlo, 10% FBS, read-out: GI50 on cellular proliferation of H929 human cancer cell lines) | GI50 ([1]; read-out: GI50 on cellular proliferation of H929 human cancer cell lines, H929 cells, 72 h, Cell TiterGlo, 10% FBS)
Cc1cc(OCCCc2c3n(c4c(-c5c(C)nn(C)c5C)c(Cl)ccc24)[C@H](C)CN(c2cc(C(C)C)cc4cc(C(=O)O)n(C)c24)C3=O)cc(C)c1Cl [Example 356, (R)-7-(7-Chloro-10-(3-(4-chloro-3,5-dimethylphenoxy)propyl)-4-methyl-1-oxo-6-(1,3,5-trimethyl-1H-pyrazol-4-yl)-3,4-dihydropyrazino[1,2-a]indol-2(1H)-yl)-5-isopropyl-1-methyl-1H-indole-2-carboxylic acid] | 1.9 nM | 650 nM | – | –
CCn1ncc2cc(C(=O)O)cc(N3CCCn4c(c(CCCOc5cc(C)c(Cl)c(C)c5)c5ccc(Cl)c(-c6c(C)nn(C)c6C)c54)C3=O)c21 [Example 122, 7-(8-Chloro-11-(3-(4-chloro-3,5-dimethylphenoxy)propyl)-1-oxo-7-(1,3,5-trimethyl-1H-pyrazol-4-yl)-4,5-dihydro-1H-[1,4]diazepino[1,2-a]indol-2(3H)-yl)-1-ethyl-1H-indazole-5-carboxylic acid] | 2.2 nM | 11000 nM | – | –
Cc1cc(OCCCc2c3n(c4c(-c5c(C)ncnc5C)c(Cl)ccc24)[C@H](C)CN(c2cccc4c2c(C(=O)O)cn4C)C3=O)cc(C)c1Cl [Example 252, 4-[(4R)-7-chloro-10-[3-(4-chloro-3,5-dimethyl-phenoxy)propyl]-6-(4,6-dimethylpyrimidin-5-yl)-4-methyl-1-oxo-3,4-dihydropyrazino[1,2-a]indol-2-yl]-1-methyl-indole-3-carboxylic acid] | 1.3 nM | 2000 nM | – | –
Cc1cc(OCCCc2c3n(c4c(-c5c(C)nn(C)c5C)c(Cl)ccc24)[C@H](C)CN(c2cccc4nn(C)c(C(=O)O)c24)C3=O)cc(C)c1Cl [Example 132, 4-[(4R)-7-chloro-10-[3-(4-chloro-3,5-dimethyl-phenoxy)propyl]-4-methyl-1-oxo-6-(1,3,5-trimethylpyrazol-4-yl)-3,4-dihydropyrazino[1,2-a]indol-2-yl]-2-methyl-indazole-3-carboxylic acid] | < 1 nM | 840 nM | – | –
Cc1cc(OCCCc2c3n(c4c(-c5c(C)nn(C)c5C)c(Cl)ccc24)[C@H](C)CN(c2cn(C)c4ccc(-c5ccn(C)n5)cc24)C3=O)cc(C)c1Cl [Example 388, (R)-7-Chloro-10-(3-(4-chloro-3,5-dimethylphenoxy)propyl)-4-methyl-2-(1-methyl-5-(1-methyl-1H-pyrazol-3-yl)-1H-indol-3-yl)-6-(1,3,5-trimethyl-1H-pyrazol-4-yl)-3,4-dihydropyrazino[1,2-a]indol-1(2H)-one] | 1.5 nM | 330 nM | – | –
Cc1cc(OCCCc2c3n(c4c(-c5c(C)nn(C)c5C)c(Cl)ccc24)[C@H](C)CN(c2cn(C)c4ccc(-c5ncn(C)n5)cc24)C3=O)cc(C)c1Cl [Example 403, (R)-7-Chloro-10-(3-(4-chloro-3,5-dimethylphenoxy)propyl)-4-methyl-2-(1-methyl-5-(1-methyl-1H-1,2,4-triazol-3-yl)-1H-indol-3-yl)-6-(1,3,5-trimethyl-1H-pyrazol-4-yl)-3,4-dihydropyrazino[1,2-a]indol-1(2H)-one] | 1.5 nM | < 200 nM | – | –
Cc1cc(OCCCc2c3n(c4c(-c5c(C)nn(C)c5C)c(Cl)ccc24)CCCN(c2nn(CCN4CCOCC4)c4cc(C(=O)O)ccc24)C3=O)cc(C)c1Cl [Example 49, 3-(8-chloro-11-(3-(4-chloro-3,5-dimethylphenoxy)propyl)-1-oxo-7-(1,3,5-trimethyl-1H-pyrazol-4-yl)-4,5-dihydro-1H-[1,4]diazepino[1,2-a]indol-2(3H)-yl)-1-(2-morpholinoethyl)-1H-indazole-6-carboxylic acid] | < 1 nM | 2600 nM | – | –
Cc1cc(OCCCc2c3n(c4c(-c5c(C)nn(C)c5C)c(Cl)ccc24)CCCN(c2cc(C(=O)O)cc4cnn(C)c24)C3=O)cc(C)c1Cl [Example 123, 7-(8-Chloro-11-(3-(4-chloro-3,5-dimethylphenoxy)propyl)-1-oxo-7-(1,3,5-trimethyl-1H-pyrazol-4-yl)-4,5-dihydro-1H-[1,4]diazepino[1,2-a]indol-2(3H)-yl)-1-methyl-1H-indazole-5-carboxylic acid] | < 1 nM | 6900 nM | – | –
Cc1cc(OCCCc2c3n(c4c(-c5c(C)nn(C)c5C)c(Cl)ccc24)[C@H](C)CN(c2cc(O)cc4c2cc(C(=O)O)n4C)C3=O)cc(C)c1Cl [Example 305, (M, R)-4-(7-chloro-10-(3-(4-chloro-3,5-dimethylphenoxy)propyl)-4-methyl-1-oxo-6-(1,3,5-trimethyl-1H-pyrazol-4-yl)-3,4-dihydropyrazino[1,2-a]indol-2(1H)-yl)-6-hydroxy-1-methyl-1H-indole-2-carboxylic acid] | < 1 nM | – | 6200 nM | –
Cc1cc(OCCCc2c3n(c4c(-c5c(C)nn(C)c5C)c(Cl)ccc24)[C@H](C)CN(c2cn(C)c4cc(C(=N)NO)ccc24)C3=O)cc(C)c1Cl [Example 335, (R)-3-(7-Chloro-10-(3-(4-chloro-3,5-dimethylphenoxy)propyl)-4-methyl-1-oxo-6-(1,3,5-trimethyl-1H-pyrazol-4-yl)-3,4-dihydropyrazino[1,2-a]indol-2(1H)-yl)-N-hydroxy-1-methyl-1H-indole-6-carboximidamide] | 4.5 nM | 910 nM | – | –
COc1cc(C(=O)O)nc2c(N3C[C@@H](C)n4c(c(CCCOc5cc(C)c(Cl)c(C)c5)c5ccc(Cl)c(-c6c(C)nn(C)c6C)c54)C3=O)cccc12 [Example 239, (R)-8-(7-Chloro-10-(3-(4-chloro-3,5-dimethylphenoxy)propyl)-4-methyl-1-oxo-6-(1,3,5-trimethyl-1H-pyrazol-4-yl)-3,4-dihydropyrazino[1,2-a]indol-2(1H)-yl)-4-methoxyquinoline-2-carboxylic acid] | < 1 nM | 1800 nM | – | –
COc1ccc(Cn2c(C(=O)O)cc3cccc(N4C[C@@H](C)n5c(c(CCCOc6cc(C)c(Cl)c(C)c6)c6ccc(Cl)c(-c7c(C)nn(C)c7C)c65)C4=O)c32)nc1 [Example 382, (R)-7-(7-Chloro-10-(3-(4-chloro-3,5-dimethylphenoxy)propyl)-4-methyl-1-oxo-6-(1,3,5-trimethyl-1H-pyrazol-4-yl)-3,4-dihydropyrazino[1,2-a]indol-2(1H)-yl)-1-((5-methoxypyridin-2-yl)methyl)-1H-indole-2-carboxylic acid] | 1.2 nM | 750 nM | – | –
Cc1noc(-c2ccc3c(c2)c(N2C[C@@H](C)n4c(c(CCCOc5cc(C)c(Cl)c(C)c5)c5ccc(Cl)c(-c6c(C)ncnc6C)c54)C2=O)cn3C)n1 [Example 395, (R)-7-Chloro-10-(3-(4-chloro-3,5-dimethylphenoxy)propyl)-6-(4,6-dimethylpyrimidin-5-yl)-4-methyl-2-(1-methyl-5-(3-methyl-1,2,4-oxadiazol-5-yl)-1H-indol-3-yl)-3,4-dihydropyrazino[1,2-a]indol-1(2H)-one] | 2.2 nM | 860 nM | – | –
Cc1cc(OCCCc2c3n(c4c(-c5c(C)nn(C)c5C)c(Cl)ccc24)[C@H](C)CN(c2cn(C)c4ccc(C(=O)Nc5ccncc5)cc24)C3=O)cc(C)c1Cl [Example 283, 3-[(4R)-7-chloro-10-[3-(4-chloro-3,5-dimethyl-phenoxy)propyl]-4-methyl-1-oxo-6-(1,3,5-trimethylpyrazol-4-yl)-3,4-dihydropyrazino[1,2-a]indol-2-yl]-1-methyl-N-(4-pyridyl)indole-5-carboxamide] | 1.2 nM | 1200 nM | – | –
Cc1cc(OCCCc2c3n(c4c(-c5c(C)nn(C)c5C)c(Cl)ccc24)[C@H](C)CN(c2nn(C)c4cccc(C(=O)O)c24)C3=O)cc(C)c1Cl [Example 175, (R)-3-(7-Chloro-10-(3-(4-chloro-3,5-dimethylphenoxy)propyl)-4-methyl-1-oxo-6-(1,3,5-trimethyl-1H-pyrazol-4-yl)-3,4-dihydropyrazino[1,2-a]indol-2(1H)-yl)-1-methyl-1H-indazole-4-carboxylic acid] | < 1 nM | – | – | 340 nM
Cc1cc(OCCCc2c3n(c4c(-c5c(C)ncnc5C)c(Cl)ccc24)[C@H](C)CN(c2cccc4c(C(=O)O)ccnc24)C3=O)cc(C)c1Cl [Example 225, 8-[(4R)-7-chloro-10-[3-(4-chloro-3,5-dimethyl-phenoxy)propyl]-6-(4,6-dimethylpyrimidin-5-yl)-4-methyl-1-oxo-3,4-dihydropyrazino[1,2-a]indol-2-yl]quinoline-4-carboxylic acid] | < 1 nM | 3300 nM | – | –
Cc1cc(OCCCc2c3n(c4c(-c5c(C)nn(C)c5C)c(Cl)ccc24)[C@H](C)CN(c2nc(C(=O)O)c4ccccn24)C3=O)cc(C)c1Cl [Example 111, (R)-3-(7-chloro-10-(3-(4-chloro-3,5-dimethylphenoxy)propyl)-4-methyl-1-oxo-6-(1,3,5-trimethyl-1H-pyrazol-4-yl)-3,4-dihydropyrazino[1,2-a]indol-2(1H)-yl)imidazo[1,5-a]pyridine-1-carboxylic acid] | < 1 nM | 2600 nM | – | –
Cc1cc(OCCCc2c3n(c4c(-c5c(C)nn(C)c5C)c(Cl)ccc24)[C@H](C)CN(c2cc(OC(F)(F)F)cc4cc(C(=O)O)[nH]c24)C3=O)cc(C)c1Cl [Example 469, (R)-7-(7-Chloro-10-(3-(4-chloro-3,5-dimethylphenoxy)propyl)-4-methyl-1-oxo-6-(1,3,5-trimethyl-1H-pyrazol-4-yl)-3,4-dihydropyrazino[1,2-a]indol-2(1H)-yl)-5-(trifluoromethoxy)-1H-indole-2-carboxylic acid] | 2.2 nM | 3300 nM | – | –
